No end group written: not given here.
Legend:
[1] = test system: eIF4E II-AA mutant (full length); assay: GST/MBP pull-down of full-length eIF4E II-AA mutant, coexpressed in E. coli; assay type: binding, Drosophila melanogaster; conditions: recombinant CUP (311–440), Thor (full length), 4E-T (1–58) or eIF4G (578–650), WT or mutant, SDS–PAGE
eIF4E (full length, WT) = assay: GST/MBP pull-down of full-length WT eIF4E, coexpressed in E. coli; assay type: binding, Drosophila melanogaster; conditions: recombinant CUP (311–440), Thor (full length), 4E-T (1–58) or eIF4G (578–650), WT or mutant, SDS–PAGE
Description: For the pull-down assays shown in Fig. 3 and Supplementary Fig. 6a, the full-length His6- or SHN-tagged eIF4E (WT or II-AA mutant) was coexpressed with GST or MBP-tagged protein fragments, including CUP (residues 311–440), Thor (full length), 4E-T (residues 1–58) or eIF4G (residues 578–650) in E. coli BL21 (DE3) STAR cells in autoinducing medium[44] overnight at 20 °C. The cells were resuspended in lysis buffer (20 mM Tris–HCl (pH 7.5), 100 mM NaCl, 1 mM DTT) supplemented with EDTA-free protease inhibitor (Roche) and lysed by sonication. The cleared lysates were incubated for 1 h with 20 μl of Protino Glutathione Agarose 4B beads (Macherey-Nagel) or amylose resin (New England Biolabs). The beads were washed three times with lysis buffer, and the bound proteins were eluted with lysis buffer containing 25 mM L-glutathione or 25 mM maltose for 15 min. The proteins were analyzed by 10–15% SDS–PAGE followed by Coomassie blue staining.

[2] = biological target: T1, eIF4E–eIF4G complex (eIF4E WT; eIF4G residues 578–650) (Drosophila melanogaster, UniProt P48598); assay: Kinetic dissociation of eIF4E–eIF4G complexes by competitor; assay type: biochemical; conditions: 1 μM complex on Strep-Tactin beads; fivefold molar excess of C+NC peptide (5 μM); CUP n=3, 4E-T n=2 averages
T1 construct: full-length eIF4E (WT or the II-AA mutant) containing an N-terminal SNH-tag was coexpressed; made in house; host or cells: E. coli BL21 Star (DE3), coexpression
T1 sequence (P48598 1-248 isoform P48598-2): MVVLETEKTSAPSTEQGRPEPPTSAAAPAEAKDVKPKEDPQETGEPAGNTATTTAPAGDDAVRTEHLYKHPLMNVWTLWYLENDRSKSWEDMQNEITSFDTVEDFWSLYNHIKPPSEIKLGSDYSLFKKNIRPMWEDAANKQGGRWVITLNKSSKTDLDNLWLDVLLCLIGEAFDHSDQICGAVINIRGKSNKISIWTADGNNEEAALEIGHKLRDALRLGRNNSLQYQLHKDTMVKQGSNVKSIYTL
Description: To obtain the preassembled eIF4E–eIF4G complexes used in Figs 4 and 5d–g, full-length eIF4E (WT or the II-AA mutant) containing an N-terminal SNH-tag was coexpressed with an N-terminal GST-tagged eIF4G (residues 578–650). The cells were lysed by sonication in lysis buffer containing 50 mM HEPES (pH 7.2), 300 mM NaCl and 2 mM DTT. The complexes were purified from the cleared lysates using Protino Glutathione Agarose 4B beads (Machery-Nagel). The complex was further purified using a heparin column (HiTrap Heparin HP 5 ml, GE Healthcare) and a final size exclusion chromatography (Superdex 200 16/60, GE Healtcare) in 20 mM HEPES (pH 7.2), 200 mM NaCl and 2 mM DTT.
In the ‘kinetic assays’ shown in Fig. 5d–g, the purified complexes containing SHN-eIF4E and GST-eIF4G (578–650; 1 μM) were incubated with Strep-Tactin beads for 20 min. […] The eIF4E-associated proteins were pulled down, eluted and analyzed as described above. […]
The amounts of GST-eIF4G bound to eIF4E in each experimental condition were determined using the Image J software after Coomassie blue staining. […]
Each experiment was repeated at least twice. (e,f) Quantification of the experiments shown in Fig. 5d–g. […]
micrographs of fixed S2 cells expressing HA-4E-T and GFP-Tral. The localization of HA-4E-T was determined by indirect immunofluorescence using an anti-HA antibody. […]

| Substance | binding to eIF4E II-AA mutant (in words) [1] | binding to WT eIF4E (in words) (eIF4E (full length, WT)) | time to 50% eIF4G dissociation [2] [min] |
| --- | --- | --- | --- |
| 4E-T C: 4E-T residues 9–21, canonical motif | reduced binding | reduced binding | – |
| CUP C+NC: CUP residues 325–376, eIF4E-binding region short, C-terminal GB1 (KSYTRSRLMDIRNGMFNALMHRSKESFVMPRIATCDDIELEGRLRRMNIWRT-GB1; UniProt Q9VMA3 325-376, looked up, fragment) | – | – | 2.5 ± 0.5 |
| Thor C: Thor residues 50–63, canonical motif | strongly impaired in their binding | – | – |
